The numbers were not newly measured in patent publication US20220354785A1, “ORAL LOZENGE PRODUCTS” (NICOVENTURES TRADING LIMITED, priority 2021, published 2022), which cites them from elsewhere.

The conditions of series [1]: aqueous environment (e.g., saliva) / water.
The conditions of series [2]: isomerizes to trans-bixin.

With `C=C(C)[C@@H]1CCC(C)=C[C@H]1c1c(O)cc(CCCCC)cc1O` [CBD, cannabidiol], the logP value result is on record as “about 6.5”.

On to `COC(=O)/C=C/C(C)=C\C=C\C(C)=C\C=C\C=C(C)\C=C\C=C(C)\C=C\C(=O)O` [bixin], for which the solubility in water result in series [1] is recorded as “insoluble in water”. In addition, the “chemical stability when isolated” value in series [2] is “chemically unstable when isolated”.
